Measurements as given in publication PMC5374710, “Discovery of the first dual GSK3β inhibitor/Nrf2 inducer. A new multitarget therapeutic strategy for Alzheimer’s disease” (Scientific Reports, 2017).
Values joined by “and” are separate entries in the source; they are usually repeats but may differ in a detail not shown here. Equal entries are not always repeated.

Experiments:
primary rat glial cells [1] = test: ROS production in LPS-stimulated primary glial cultures (H2DCFDA); assay type: cell-based; conditions: Glial cell, 24 h pre-incubation, 18 h co-incubation with LPS, 3 h with fluorescent dye, read-out: IC50 ROS reduction
Text: (§1) Therefore, we envisaged the study of compounds 5a–t as potential anti-inflammatory agents. We used primary rat glial cells treated with lipopolysaccharide (LPS) to induce the production of nitrites and ROS as a model of glial activation. Nitrite production is directly proportional to the expression of the iNOS, that is over-expressed when LPS activates glial cells. ROS production is proportional to NOX activation after stimulation with LPS. Results are summarized in Table 2 as IC50s of nitrite production reduction and ROS production reduction. We have included sulforaphane as control in all experiments (see the Supporting Information).
Besides the increase in nitrite production, it is well known that LPS stimulation of microglia also induces the activation of NOX, which induces superoxide free radical production. In fact, this mechanism is synergistic with the expression of iNOS and the production of nitrites. In this respect, there is a body of evidence showing that NOX activation is a major contributor to ROS oxidative stress and neuronal death in AD[57][58]. […] In general, potency to reduce ROS production increased from ortho to para and meta as observed above.
(§2) Primary glial cells were cultured in bottom transparent 96-well black plates following standard protocol. Cells were pre-incubated with the corresponding compound at the selected concentrations, for 24 hours, and therafter, co-incubated with the corresponding compound and LPS (1 μM) during 18 h more. Then, treatments were removed and cells were loaded with the fluorescent probe 2′,7′-dichlorodihydrofluorescein diacetate (H2DCFDA) (10 μM) for 45 minutes in serum free glial culture medium. All experiments included cells treated with culture medium alone (basal). Cells were washed twice with culture medium and fluorescence intensity was recorded in a Fluostar Optima multiwall pate reader (BMG Labtech, Offenburg, Germany) at 485/520 nm as excitation and emission wavelengths respectively, each hour, during 3 hours period. Data were normalized with respect to basal conditions that were considered as 100%.
as §2, with “µM)” for “μM)”, “2',7'-dichlorodihydrofluorescein” for “2′,7′-dichlorodihydrofluorescein”
(§3) Mixed glial cultures were obtained from cerebral cortex of 2-5 day-old Sprague-Dawley rats. After removal of blood vessels and meninges, the forebrains were dissociated in DMEM/F12 medium. After mechanical dissociation, cells were plated (3x10^5 cells/ml) in DMEM/F12 medium with 20% fetal bovine serum (FBS) and 1 % penicillin/streptomycin (10,000 units), at 37 °C and in a 5 % CO2-supplemented air atmosphere. After 5 days, medium was substituted by DMEM/F12 medium with 10 % FBS. Cells were cultured for 7-10 days before treatment.

primary rat glial cells [2] = test: Nitrite production in LPS-stimulated primary glial cultures (Griess); assay type: cell-based; conditions: Glial cell, 24 h pre-incubation, 18 h co-incubation with LPS 1 μg/mL, read-out: IC50 nitrite reduction
Text: as §1
Glial cells were pre-incubated with increasing concentrations of compounds for 24 hours. Then, treatments were removed and cells were incubated with LPS (1 μg/mL) alone or in presence of each compound at the desired concentration. Nitrite production was assessed 18 hours later by modified Griess assay. Briefly, samples (150 μl) were mixed with dapsone (75 μl) and NEDA (75 μl), and the mixture was incubated at room temperature for 5 min. Light absorption was measured at 550 nm in a microplate reader (Labtech, Offenburg, Germany). All data were normalized to basal nitrite production, considering this value as 100% of nitrite production. IC50 values were calculated from dose-response curves represented as percentage of nitrite production reduction induced by the different concentrations of each compound.
as §3
Primary rat glial cells were treated with compounds 5a-t at increasing concentrations (3, 10, 30 and 60 µM) during 24 h. Thereafter, treatments were removed and glial cells were co-incubated with increasing concentrations of each compound and LPS (1 µg/mL) for 18 h more. At the end of this period, supernatant was collected and the presence of nitrites was analyzed by the Griess method with modifications.^20 Each plate included non-treated cells as basal nitrite production, sulforaphane (SFN, 10 µM) as positive control. Briefly, samples (150 µl) were mixed with DAPSONE (75 µl) and NEDA (75 µl), and the mixture was incubated at room temperature for 5 min. Light absorption was measured at 550 nm in a microplate reader (Labtech, Offenburg, Germany). All data were normalized to basal nitrite production, considering this value as 100% of nitrite production. EC50 values were calculated from dose-response curves represented as percentage of nitrite production reduction induced by the different concentrations of each compound. Concentration response curves were fitted by non-linear regression analysis of individual concentration-response curves using GraphPad Prism software (San Diego, CA, USA). EC50 values are expressed as mean ± SEM of four different experiments in triplicate.

GSK3β = target: T1, GSK3β (Homo sapiens, UniProt P49841); test: GSK3β inhibition, luminescence Kinase-Glo assay; assay type: biochemical; conditions: for Ki: calculated from IC50 by Cheng-Prusoff equation, Km ATP 2.345 µM, read-out: Ki (apparent equilibrium dissociation constant); for IC50: four concentrations 0.1, 1, 10, 30 μM, ATP 1 μM, 1 h
T1 construct: purchased Promega V1991
T1 sequence (P49841 whole entry): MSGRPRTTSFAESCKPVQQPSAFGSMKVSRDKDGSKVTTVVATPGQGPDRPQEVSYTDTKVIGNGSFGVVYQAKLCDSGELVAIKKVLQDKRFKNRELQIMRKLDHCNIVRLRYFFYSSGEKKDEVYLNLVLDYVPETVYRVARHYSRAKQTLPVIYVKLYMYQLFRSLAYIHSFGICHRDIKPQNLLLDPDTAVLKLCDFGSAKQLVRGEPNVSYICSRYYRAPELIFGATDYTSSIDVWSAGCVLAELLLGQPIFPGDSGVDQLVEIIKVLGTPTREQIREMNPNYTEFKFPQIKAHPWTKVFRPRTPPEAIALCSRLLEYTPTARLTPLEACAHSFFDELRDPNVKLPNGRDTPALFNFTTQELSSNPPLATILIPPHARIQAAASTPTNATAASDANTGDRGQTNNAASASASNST
Experimental: GSK3β inhibitory activity was evaluated using the method developed by Baki[66], with modifications. Compounds were dissolved in assay buffer, containing 40 mM Tris (pH 7.5), 20 mM MgCl2, 0.1 mg/ml BSA (bovine serum albumin) and 50 μM dithiothreitol (DTT) at the desired concentrations. Firstly, 10 μl of enzyme (10 ng) and 10 μl of each compound were mixed for 30 min. Then, 20 μl of a mixture of ATP (1 μM) and GSK3β peptidic substrate were added to each well. The mixture was incubated for 60 min at 30 °C. Thereafter, the remaining ATP concentration was measured with the Kinase-Glo system following instructions from the supplier. Luminescence was measured in an Orion II microplate luminometer (Berthold, Germany) as relative light units (RLU). […] IC50 values were calculated by non-linear regression analysis of individual concentration-response curves using GraphPad Prism 5.0 software (San Diego, CA, USA).
The ability of the compounds to inhibit GSK3β was evaluated using the method developed by Baki^9 with some modifications. The tested compounds were dissolved in assay buffer, containing 40 mM Tris (pH 7.5), 20 mM MgCl2, 0.1 mg/ml BSA (bovine serum albumin) and 50 µM dithiothreitol (DTT), to achieve final reaction concentrations of 0.1, 1, 10 and 30 µM. […] The GSK3β inhibition assay was performed in white 96-well plates, in duplicates. Firstly, 10 µl of enzyme (10 ng) were added to each well, followed by 10 µl of the compounds at the desired concentration. After 30 minutes, 20 µl of a mixture of ATP and GSK3β peptidic substrate were added to each well, achieving a final concentration of 1 µM of ATP and 25 of µM peptidic substrate. The mixture was incubated at 30 °C for 60 minutes. Once the reaction was finished, the remaining ATP concentration was measured by adding 40 µl/well of Kinase-Glo reagent. The luminescence was measured in an Orion II microplate luminometer (Berthold, Germany) as relative light units (RLU). The luminescence recorded is proportional to the amount of ATP present in each well.
Apparent Ki for each compound were calculated from GSK3β Km value for ATP, applying the Cheng-Prusoff equation^10,11 in its simplified form: Ki = IC50/(1+([S]/Km)), in which S refers to the ATP concentration and Km is the Michaelis constant of the substrate for GSK3β.

SH-SY5Y cells = test: Cytotoxicity in SH-SY5Y neuroblastoma cell line (MTT); conditions: 24 h
Experimental: Viability was measured as MTT reduction in presence of increasing concentrations of derivatives. Values are expressed as LD50 calculated from dose-response curves of four different concentrations.
Cells were cultured in 48-well (SH-SY5Y, 1x10^5 cells per well) or 96-well plates (HepG2, 1x10^5 cells per well) for 24 h. […] Control cells were incubated with the same concentration of DMSO (0.1 % final concentration) without any drug.

| SMILES | IC50 (primary rat glial cells [1]) [µM] | IC50 (primary rat glial cells [2]) [µM] | Ki (GSK3β) [µM] | IC50 (GSK3β) | SH-SY5Y LD50 (SH-SY5Y cells) [µM] |
| --- | --- | --- | --- | --- | --- |
| Cc1n[nH]c2c1C(c1ccc(Cl)cc1)C(C#N)=C(N)O2 (stereo not shown) [Compound 5k, 6-Amino-4-(4-chlorophenyl)-3-methyl-2,4-dihydropyrano[2,3-c]pyrazole-5-carbonitrile] | > 60 | 26 ± 2.74 | 4.41 | 6.29 ± 2.6 µM | > 100 |
| COc1ccc(C2C(C#N)=C(N)Oc3n[nH]c(C)c32)cc1 (stereo not shown) [Compound 5d, 6-Amino-4-(4-methoxyphenyl)-3-methyl-2,4-dihydropyrano[2,3-c]pyrazole-5-carbonitrile] | 19.9 ± 4.89 | 35.4 ± 2.57 | 4.63 | 6.6 ± 1.7 µM | > 100 |
| Cc1n[nH]c2c1C(c1ccc(F)cc1)C(C#N)=C(N)O2 (stereo not shown) [Compound 5h, 6-Amino-4-(4-fluorophenyl)-3-methyl-2,4-dihydropyrano[2,3-c]pyrazole-5-carbonitrile] | 37 ± 4.32 | 11.3 ± 1.15 | 12.5 | 17.9 ± 1.5 µM | > 100 |
| Cc1n[nH]c2c1C(c1ccco1)C(C#N)=C(N)O2 (stereo not shown) [Compound 5q, 6-Amino-4-(furan-2-yl)-3-methyl-2,4-dihydropyrano[2,3-c]pyrazole-5-carbonitrile] | 22.5 ± 7.78 | 17.5 ± 2.45 | 10.4 | 14.8 ± 4.8 µM | > 100 |
| Cc1[nH]nc2c1C(c1cccnc1)C(C#N)=C(N)O2 (stereo not shown) [Compound 5s, 6-Amino-3-methyl-4-(pyridin-3-yl)-2,4-dihydropyrano[2,3-c]pyrazole-5-carbonitrile] | 15.2 ± 3.73 | 7.23 ± 1.1 |  | > 30 µM | > 100 |
| Cc1cccc(C2C(C#N)=C(N)Oc3n[nH]c(C)c32)c1 (stereo not shown) [Compound 5f, 6-Amino-3-methyl-4-(3-methylphenyl)-2,4-dihydropyrano[2,3-c]pyrazole-5-carbonitrile] | 32.6 ± 6.79 | 13.4 ± 1.44 | 15 | 21.4 ± 4.6 µM | > 100 |
| Cc1[nH]nc2c1C(c1ccc([N+](=O)[O-])cc1)C(C#N)=C(N)O2 (stereo not shown) [Compound 5p, 6-Amino-3-methyl-4-(4-nitrophenyl)-2,4-dihydropyrano[2,3-c]pyrazole-5-carbonitrile] | > 60 | 26.7 ± 4.86 | 11.4 | 16.3 ± 2.8 µM | > 100 |
| Cc1[nH]nc2c1C(c1ccc(Br)cc1)C(C#N)=C(N)O2 (stereo not shown) [Compound 5m, 6-Amino-4-(4-bromophenyl)-3-methyl-2,4-dihydropyrano[2,3-c]pyrazole-5-carbonitrile] | 33.2 ± 7.36 | 11.4 ± 2.27 | 2.64 | 3.77 ± 2 µM | > 100 |
| Cc1n[nH]c2c1C(c1cccs1)C(C#N)=C(N)O2 (stereo not shown) [Compound 5r, 6-Amino-3-methyl-4-(thiophen-2-yl)-2,4-dihydropyrano[2,3-c]pyrazole-5-carbonitrile] | > 60 | > 60 |  | > 30 µM | > 100 |
| Cc1[nH]nc2c1C(c1cccc(Cl)c1)C(C#N)=C(N)O2 (stereo not shown) [Compound 5j, 6-Amino-4-(3-chlorophenyl)-3-methyl-2,4-dihydropyrano[2,3-c]pyrazole-5-carbonitrile] | 24 ± 2.58 | 5.11 ± 0.65 | 14.4 | 20.5 ± 8 µM | > 100 |
| Cc1n[nH]c2c1C(c1ccccc1Br)C(C#N)=C(N)O2 (stereo not shown) [Compound 5l, 6-Amino-4-(2-bromophenyl)-3-methyl-2,4-dihydropyrano[2,3-c]pyrazole-5-carbonitrile] | 38.6 ± 7.16 | 26.7 ± 1.95 |  | > 30 µM | > 100 |
| Cc1ccccc1C1C(C#N)=C(N)Oc2[nH]nc(C)c21 (stereo not shown) [Compound 5e, 6-Amino-3-methyl-4-(2-methylphenyl)-2,4-dihydropyrano[2,3-c]pyrazole-5-carbonitrile] | 60 ± 0.29 | 34.3 ± 3.84 |  | > 30 µM | > 100 |
| Cc1[nH]nc2c1C(c1ccccc1[N+](=O)[O-])C(C#N)=C(N)O2 (stereo not shown) [Compound 5n, 6-Amino-3-methyl-4-(2-nitrophenyl)-2,4-dihydropyrano[2,3-c]pyrazole-5-carbonitrile] | 19.9 ± 4.89 | 15.8 ± 5.23 | 2.72 | 3.9 µM and 3.89 µM | > 100 |
| Cc1[nH]nc2c1C(c1cccc([N+](=O)[O-])c1)C(C#N)=C(N)O2 (stereo not shown) [Compound 5o, 6-Amino-3-methyl-4-(3-nitrophenyl)-2,4-dihydropyrano[2,3-c]pyrazole-5-carbonitrile] | 30.8 ± 4.99 | 40.8 ± 2.23 | 5.04 | 7.2 ± 1.6 µM | > 100 |
| Cc1ccc(C2C(C#N)=C(N)Oc3[nH]nc(C)c32)cc1 (stereo not shown) [Compound 5g, 6-Amino-3-methyl-4-(4-methylphenyl)-2,4-dihydropyrano[2,3-c]pyrazole-5-carbonitrile] | 45.1 ± 5.33 | 22.3 ± 3.82 | 12.3 | 17.5 ± 1.9 µM | > 100 |
| COc1cccc(C2C(C#N)=C(N)Oc3n[nH]c(C)c32)c1 (stereo not shown) [Compound 5c, 6-Amino-4-(3-methoxyphenyl)-3-methyl-2,4-dihydropyrano[2,3-c]pyrazole-5-carbonitrile] | 18.1 ± 5.36 | 12.9 ± 0.86 | 5.04 | 7.2 ± 0.7 µM | > 100 |
| Cc1[nH]nc2c1C(c1ccccc1)C(C#N)=C(N)O2 (stereo not shown) [Compound 5a, 6-Amino-3-methyl-4-phenyl-2,4-dihydropyrano[2,3-c]pyrazole-5-carbonitrile] | > 60 | > 60 |  | > 30 µM | > 100 |
| COc1ccccc1C1C(C#N)=C(N)Oc2n[nH]c(C)c21 (stereo not shown) [Compound 5b, 6-Amino-4-(2-methoxyphenyl)-3-methyl-2,4-dihydropyrano[2,3-c]pyrazole-5-carbonitrile] | > 60 | 43.6 ± 6.45 | 11.5 | 16.4 ± 1.8 µM | > 100 |
| Cc1n[nH]c2c1C(c1ccccc1Cl)C(C#N)=C(N)O2 (stereo not shown) [Compound 5i, 6-Amino-4-(2-chlorophenyl)-3-methyl-2,4-dihydropyrano[2,3-c]pyrazole-5-carbonitrile] | > 60 | > 60 |  |  | > 100 |
